Where two headings read alike, the source gives them in different places.
Experiments:
plasma IL-17A = assay: In vivo IL-17A induction in anti-CD3 model in mice; conditions: oral gavage twice daily day 0 to day 3, anti-CD3e induced C57BL/6JRj mice
Description: Male C57BL/6JRj mice (7 week old) were purchased from Janvier Labs and housed at the animal facilities of Almirall throughout the study. Animals were allowed to condition for 5 days in their new environment at 22° C.±2° C., 55%±10% relative humidity and 12 h:12 h light:dark cycles. Animals were housed in polycarbonate cages, with free access to water and non-purified stock diet (2014 Teklad Global 14% Protein Rodent Maintenance Diet, Envigo) during the full course of the studies. Care of animals was undertaken in compliance with the European Committee Directive 2010/63/EU, and the Catalan and Spanish law. […]
Plasma levels of IL-17A were measured by ELISA (R&D Systems) according to the manufacturer's instruction. Results were calculated as the percentage of reduction of plasma IL-17A versus the difference between non-induced and anti-CD3e induced groups through the formula: inhibition=100*[1−[(x−mean non-induced)/(mean control vehicle−mean non-induced)]]. The IL-17A inhibition for each treatment can be expressed as the mean for each treatment group±S.E.M. Statistical analysis of data were conducted with one-way ANOVA followed by Dunnett's multiple comparisons test when appropriate. […]

[1] = biological target: T1, RORγ ligand-binding domain (Homo sapiens, UniProt P51449); assay: RORγ Reporter Assay (Gal4); format: cell-based
T1 construct: Gal4 (galactose-responsive transcription factor); expressed in transfected cells; host or cells: HEK293, transient co-transfection
T1 sequence (P51449 269-508 limits assumed): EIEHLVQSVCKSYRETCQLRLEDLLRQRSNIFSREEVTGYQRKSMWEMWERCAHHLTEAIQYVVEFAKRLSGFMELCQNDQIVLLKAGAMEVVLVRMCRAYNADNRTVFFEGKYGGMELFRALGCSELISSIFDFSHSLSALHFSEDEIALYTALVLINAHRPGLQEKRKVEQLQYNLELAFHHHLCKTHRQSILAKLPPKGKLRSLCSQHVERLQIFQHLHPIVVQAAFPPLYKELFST
Outline: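 HEK293 cells transiently co-transfected with Gal4–RORγ LBD fusion and UAS-luciferase reporter, plated 2 h, then exposed to compound (0.1% DMSO final) for 24 h at 37 °C. Luminescence read; percent reduction vs vehicle fitted to dose-response curves.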

[2] = test system: IL-17A secretion in activated PBMCs; assay: IL-17A secretion in activated PBMCs; format: cell-based; conditions: human PBMCs stimulated with CD3/CD28 Dynabeads for 48 h, absolute IC50
Description: Heparin-treated whole blood from healthy human volunteers was supplied from Hospital de Sant Pau (Barcelona) under the approval of the local ethical review board for human studies (Hospital de Sant Pau, Barcelona, Spain). Human peripheral blood mononuclear cells (PBMCs) were isolated from healthy human volunteers by density gradient centrifugation using the Ficoll-Paque (GE Healthcare). PBMCs were suspended in cell culture medium which consisted on RPMI 1640 medium (Sigma-Aldrich) containing 10% heat inactivated fetal bovine serum (Sigma-Aldrich), 2 mM L-Glutamine (Gibco), 20 mM Hepes (Gibco) and 100 U/mL penicillin (Sigma-Aldrich). Cells were seeded in 384-well plate (DiscoverX), at 40,000 cells per well and cultured 2 h at 37° C. and 5% CO2.
Dose-response curves with compounds were prepared using a 5-fold serial dilution (10 concentrations) in 100% DMSO and further diluted 100-fold in culture medium. Compound solutions (5 μL) were added to the plate containing cells (final DMSO concentration of 0.1%) and incubated for 30 min. Then, cells were stimulated with CD3/CD28 Dynabeads (ThermoFisher, at a bead-to-cell ratio of 1:1) for 48 h at 37° C. and 5% CO2.
IL-17A levels in supernatant were determined by immunoassay using hIL17A QBeads (Intellicyt) and by fluorescence analysis in iQue flow cytometer following the manufacturer's instructions. Inhibition of IL-17A secretion was calculated using the following formula: inhibition=100*[1−[(x−mean basal condition)/(mean top condition—mean basal condition)]]. Activated DMSO-treated cells were used as top condition and activated GNE09461 (10 μM)-treated cells as basal condition.

Th17 cells = assay: Th17 Assay (IL-17 levels in supernatants of differentiated Th17 cells); format: cell-based; conditions: Homo sapiens, 168 h; naive CD4+ T cells differentiated to Th17 for seven days, IL-17 by ELISA
Description: Human peripheral blood mononuclear cells (PBMCs) were isolated from buffy coats of healthy human volunteers using the Ficoll paque PLUS kit (GE Healthcare, cat no 17-1440-02), as instructed by the manufacturer. Naive CD4+ T cells were isolated with Naive CD4+ T cell kit, human (Milteny Biotec, cat no 130-094-131). The following modifications were made to the manufacturer's protocol: 1) Incubation with Biotin-Antibody Cocktail and Anti-Biotin MicroBeads was prolonged to 30 minutes, and 2) Cells were washed with 40 mL of Miltenyi buffer. Differentiation of Th17 cells in anti-CD3 (BD Pharmingen, 5 μg/ml) coated 96-well plates (400,000 cells/well, 160 μl RPMI 1640+10% Fetal Bovine Serum) containing 5 μg/ml anti-CD28 (BD Pharmingen), 10 ng/ml IL-2 (R&D Systems), 2.5 ng/ml TGFβ-1 (R&D Systems), 20 ng/ml IL-10 (R&D Systems), 20 ng/ml IL-6 (R&D Systems), 30 ng/ml IL-23 (R&D Systems), 2.5 μg/ml anti-IL-4 (R&D Systems) and 1 μg/ml anti-IFNγ (R&D Systems) and with test compound during the entire differentiation (or vehicle, 0.1% DMSO for control). Test compounds were tested in triplicates, diluted 1000-fold in medium (final DMSO concentration is 0.1%). […] IL-17 levels in supernatants were measured with ELISA (R&D Systems).

[3] = HEK293 cells, luciferase reporter, 24 h incubation, absolute IC50, read-out: IC50

SMILES	Inhibition of IL-17A (%) at 3 mg/kg (plasma IL-17A) [%]	IC50 [1, 3] [nM]	IC50 ([1]; stated as a bound only (Tables 5 a, 6, 7), read-out: Gal4 assay IC50) [nM]	IC50 ([2]; Homo sapiens, PBMC, 48 h) [nM]	IC50 (Th17 cells) [nM]	IC50 [2] [nM]
NC(=O)CN1CC[C@](O)(Cn2ccc3c(N(Cc4ccc(C(F)(F)F)cc4)C4CC4)ncnc32)[C@@H](O)C1 (single isomer, unassigned) [Example L5-1-1-1]	94	2.2	< 100	3.6		
NC(=O)CN1CCC(Cn2ccc3c(N4CCOCC4c4ccc(C(F)(F)F)cc4)ncnc32)CC1 (single isomer, unassigned) [Example P6-02-2]		30			124	
NC(=O)CN1CC[C@](O)(Cn2ccc3c(N(Cc4ccc(-n5cccn5)cc4)C4CC4)ncnc32)[C@@H](O)C1 (single isomer, unassigned) [Example R5-2-1]		4.9				29
NC(=O)CN1CC[C@](O)(Cn2ccc3c(N(Cc4ccc(-n5cccn5)cc4)C4CC4)ncnc32)[C@@H](O)C1 (single isomer, unassigned) [Example R5-2-2]		6.5				7.4
NC(=O)CN1CCC(O)(Cn2cc(F)c3c(N(Cc4ccc(C(F)(F)F)cc4)C4CC4)ncnc32)CC1 [Example 3P6-1, 2-(4-((4-(Cyclopropyl(4-(trifluoromethyl)benzyl)amino)-5-fluoro-7H-pyrrolo[2,3-d]pyrimidin-7-yl)methyl)-4-hydroxypiperidin-1-yl)acetamide]		6.9		21		
NC(=O)CN1CCC(O)(Cn2ccc3c(N(Cc4ccc(C(F)(F)F)cc4)C4CC4)ncnc32)CC1 [Example 3P6-2, 2-(4-((4-(cyclopropyl(4-(trifluoromethyl)benzyl)amino)-7H-pyrrolo-[2,3-d]pyrimidin-7-yl)methyl)-4-hydroxypiperidin-1-yl)acetamide]		4.2		2.2		
NC(=O)CN1CCC(Cn2cc(F)c3c(N(Cc4ccc(C(F)(F)F)cc4)C4CC4)ncnc32)CC1 [Example P6-05, 2-(4-((4-(cyclopropyl(4-(trifluoromethyl)benzyl)amino)-5-fluoro-7H-pyrrolo[2,3-d]pyrimidin-7-yl)methyl)piperidin-1-yl)acetamide]		62		20		
NC(=O)CN1CCC(Cn2cnc3c(N(Cc4ccc(C(F)(F)F)cc4)C4CC4)ncnc32)CC1 [Example P6-06, 2-(4-((6-(cyclopropyl(4-(trifluoromethyl)benzyl)amino)-9H-purin-9-yl)methyl)piperidin-1-yl)acetamide]		85		48		
N#CC1(Cn2cc(F)c3c(N(Cc4ccc(C(F)(F)F)cc4)C4CC4)ncnc32)CCN(CC(N)=O)CC1 [Example P6-11, 2-(4-cyano-4-((4-(cyclopropyl(4-(trifluoromethyl)benzyl)amino)-5-fluoro-7H-pyrrolo[2,3-d]pyrimidin-7-yl)methyl)piperidin-1-yl)acetamide]		16		23		

From patent US11780843B2, “Compounds active towards nuclear receptors” (NUEVOLUTION A/S, priority 2020, dated 2023)
